According to patent US12110295B2, “WD40 repeat domain protein 5 (WDR5) degradation/disruption compounds and methods of use” (Icahn School of Medicine at Mount Sinai, priority 2018, dated 2024):

What follows are compounds tested against WDR5 (Homo sapiens, UniProt P61964) (assay: Screening of putative WDR5 degraders by Western blot in MV4;11 and/or MIAPACA2 cells). Settings: summary of screening, FIGS. 6-10.
Format: cell-based
Set-up: After WDR5 degrader treatment, cells were collected and lysed; endogenous in cells; host or cells: MV4;11 and/or MIAPACA2
How it was run: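 MV4;11 (1×10^6/well) or MIAPACA2 (1×10^5/well) cells treated 18 h with compound at paired doses between 0.1 and 10 μM, DMSO as control. Total lysates immunoblotted for WDR5 with vinculin, tubulin or GAPDH loading controls; fluorescent secondary detection.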

Row | SMILES | effective degradation of WDR5 in MV4;11 and/or MIAPACA2 cells
1 | Cc1ncsc1-c1ccc(CNC(=O)[C@@H]2C[C@@H](O)CN2C(=O)[C@@H](NC(=O)CCOCCOCCOCCC(=O)NCCN2CCN(Cc3ccc(F)c(-c4ccc(N5C[C@@H](C)N(C)[C@@H](C)C5)c(NC(=O)c5c[nH]c(=O)cc5C(F)(F)F)c4)c3)CC2)C(C)(C)C)cc1 [XF078-6, N-(2′-fluoro-5′-((4-((S)-18-((2S,4R)-4-hydroxy-2-((4-(4-methylthiazol-5-yl)benzyl)carbamoyl)pyrrolidine-1-carbonyl)-19,19-dimethyl-4,16-dioxo-7,10,13-trioxa-3,17-diazaicosyl)piperazin-1-yl)methyl)-4-((3S,5R)-3,4,5-trimethylpiperazin-1-yl)-[1,1′-biphenyl]-3-yl)-6-oxo-4-(trifluoromethyl)-1,6-dihydropyridine-3-carboxamide] | able to effectively degrade WDR5
2 | C[C@@H]1CN(c2cc(F)c(C3=CCN(c4ncc(CN5CCN(C(=O)CCNc6cccc7c6C(=O)N(C6CCC(=O)NC6=O)C7=O)CC5)cn4)CC3)cc2NC(=O)c2c[nH]c(=O)cc2C(F)(F)F)C[C@H](C)N1C (stereo partly drawn) [XF078-150, N-(5-(1-(5-((4-(3-((2-(2,6-dioxopiperidin-3-yl)-1,3-dioxoisoindolin-4-yl)amino)propanoyl)piperazin-1-yl)methyl)pyrimidin-2-yl)-1,2,3,6-tetrahydropyridin-4-yl)-4-fluoro-2-((3S,5R)-3,4,5-trimethylpiperazin-1-yl)phenyl)-6-oxo-4-(trifluoromethyl)-1,6-dihydropyridine-3-carboxamide] | able to effectively degrade WDR5
3 | C[C@@H]1CN(c2ccc(-c3cc(CN4CCN(CCNC(=O)CCCCNc5cccc6c5C(=O)N(C5CCC(=O)NC5=O)C6=O)CC4)ccc3F)cc2NC(=O)c2c[nH]c(=O)cc2C(F)(F)F)C[C@H](C)N1C (stereo partly drawn) [XF078-21, N-(5′-((4-(2-(5-((2-(2,6-dioxopiperidin-3-yl)-1,3-dioxoisoindolin-4-yl)amino)pentanamido)ethyl)piperazin-1-yl)methyl)-2′-fluoro-4-((3S,5R)-3,4,5-trimethylpiperazin-1-yl)-[1,1′-biphenyl]-3-yl)-6-oxo-4-(trifluoromethyl)-1,6-dihydropyridine-3-carboxamide] | able to effectively degrade WDR5
4 | Cc1ncsc1-c1ccc(CNC(=O)[C@@H]2C[C@@H](O)CN2C(=O)[C@@H](NC(=O)CCOCCOCCC(=O)N2CCN(Cc3cnc(N4CC=C(c5cc(NC(=O)c6c[nH]c(=O)cc6C(F)(F)F)c(N6C[C@@H](C)N(C)[C@@H](C)C6)cc5F)CC4)nc3)CC2)C(C)(C)C)cc1 [XF078-135, N-(4-fluoro-5-(1-(5-((4-(3-(2-(3-(((S)-1-((2S,4R)-4-hydroxy-2-((4-(4-methylthiazol-5-yl)benzyl)carbamoyl)pyrrolidin-1-yl)-3,3-dimethyl-1-oxobutan-2-yl)amino)-3-oxopropoxy)ethoxy)propanoyl)piperazin-1-yl)methyl)pyrimidin-2-yl)-1,2,3,6-tetrahydropyridin-4-yl)-2-((3S,5R)-3,4,5-trimethylpiperazin-1-yl)phenyl)-6-oxo-4-(trifluoromethyl)-1,6-dihydropyridine-3-carboxamide] | able to effectively degrade WDR5
5 | Cc1ncsc1-c1ccc(CNC(=O)[C@@H]2C[C@@H](O)CN2C(=O)[C@@H](NC(=O)CCCCCCCCCCCCC(=O)NCCN2CCN(Cc3cccc(-c4ccc(N5CCN(C)CC5)c(NC(=O)c5c[nH]c(=O)cc5C(F)(F)F)c4)c3)CC2)C(C)(C)C)cc1 [XF050-162, N^1-((S)-1-((2S,4R)-4-hydroxy-2-((4-(4-methylthiazol-5-yl)benzyl)carbamoyl)pyrrolidin-1-yl)-3,3-dimethyl-1-oxobutan-2-yl)-N^14-(2-(4-((4′-(4-methylpiperazin-1-yl)-3′-(6-oxo-4-(trifluoromethyl)-1,6-dihydropyridine-3-carboxamido)-[1,1′-biphenyl]-3-yl)methyl)piperazin-1-yl)ethyl)tetradecanediamide] | able to effectively degrade WDR5
6 | C[C@@H]1CN(c2cc(F)c(C3=CCN(c4ncc(CN5CCN(C(=O)CCOCCOCCOCCOCCOCCNc6cccc7c6C(=O)N(C6CCC(=O)NC6=O)C7=O)CC5)cn4)CC3)cc2NC(=O)c2c[nH]c(=O)cc2C(F)(F)F)C[C@H](C)N1C (stereo partly drawn) [XF078-160, N-(5-(1-(5-((4-(1-((2-(2,6-dioxopiperidin-3-yl)-1,3-dioxoisoindolin-4-yl)amino)-3,6,9,12,15-pentaoxaoctadecan-18-oyl)piperazin-1-yl)methyl)pyrimidin-2-yl)-1,2,3,6-tetrahydropyridin-4-yl)-4-fluoro-2-((3S,5R)-3,4,5-trimethylpiperazin-1-yl)phenyl)-6-oxo-4-(trifluoromethyl)-1,6-dihydropyridine-3-carboxamide] | able to effectively degrade WDR5
7 | C[C@@H]1CN(c2cc(F)c(C3=CCN(c4ncc(CN5CCN(C(=O)CCOCCOCCOCCNc6cccc7c6C(=O)N(C6CCC(=O)NC6=O)C7=O)CC5)cn4)CC3)cc2NC(=O)c2c[nH]c(=O)cc2C(F)(F)F)C[C@H](C)N1C (stereo partly drawn) [XF078-158, N-(5-(1-(5-((4-(3-(2-(2-(2-((2-(2,6-dioxopiperidin-3-yl)-1,3-dioxoisoindolin-4-yl)amino)ethoxy)ethoxy)ethoxy)propanoyl)piperazin-1-yl)methyl)pyrimidin-2-yl)-1,2,3,6-tetrahydropyridin-4-yl)-4-fluoro-2-((3S,5R)-3,4,5-trimethylpiperazin-1-yl)phenyl)-6-oxo-4-(trifluoromethyl)-1,6-dihydropyridine-3-carboxamide] | able to effectively degrade WDR5
8 | Cc1ncsc1-c1ccc(CNC(=O)[C@@H]2C[C@@H](O)CN2C(=O)[C@@H](NC(=O)COCCNC(=O)CCC(=O)N2CCN(c3ncc(-c4cc(NC(=O)c5c[nH]c(=O)cc5C(F)(F)F)c(N5C[C@@H](C)N(C)[C@@H](C)C5)cc4F)cn3)CC2)C(C)(C)C)cc1 [XF078-61, N-(4-fluoro-5-(2-(4-(4-((2-(2-(((S)-1-((2S,4R)-4-hydroxy-2-((4-(4-methylthiazol-5-yl)benzyl)carbamoyl)pyrrolidin-1-yl)-3,3-dimethyl-1-oxobutan-2-yl)amino)-2-oxoethoxy)ethyl)amino)-4-oxobutanoyl)piperazin-1-yl)pyrimidin-5-yl)-2-((3S,5R)-3,4,5-trimethylpiperazin-1-yl)phenyl)-6-oxo-4-(trifluoromethyl)-1,6-dihydropyridine-3-carboxamide] | able to effectively degrade WDR5
9 | Cc1ncsc1-c1ccc(CNC(=O)[C@@H]2C[C@@H](O)CN2C(=O)[C@@H](NC(=O)CCCCCCC(=O)N2CCN(c3ncc(-c4cc(NC(=O)c5ccc(F)cc5C(F)(F)F)c(N5C[C@@H](C)N(C)[C@@H](C)C5)cc4F)cn3)CC2)C(C)(C)C)cc1 [XF078-112, (2S,4R)-1-((S)-2-(8-(4-(5-(2-fluoro-5-(4-fluoro-2-(trifluoromethyl)benzamido)-4-((3S,5R)-3,4,5-trimethylpiperazin-1-yl)phenyl)pyrimidin-2-yl)piperazin-1-yl)-8-oxooctanamido)-3,3-dimethylbutanoyl)-4-hydroxy-N-(4-(4-methylthiazol-5-yl)benzyl)pyrrolidine-2-carboxamide] | able to effectively degrade WDR5
10 | Cc1ncsc1-c1ccc(CNC(=O)[C@@H]2C[C@@H](O)CN2C(=O)[C@@H](NC(=O)COCCOCCOCCOCCOCC(=O)N2CCN(c3ncc(-c4cc(NC(=O)c5ccc(F)cc5C(F)(F)F)c(N5C[C@@H](C)N(C)[C@@H](C)C5)cc4F)cn3)CC2)C(C)(C)C)cc1 [XF078-106, (2S,4R)-1-((S)-2-(tert-butyl)-20-(4-(5-(2-fluoro-5-(4-fluoro-2-(trifluoromethyl)benzamido)-4-((3S,5R)-3,4,5-trimethylpiperazin-1-yl)phenyl)pyrimidin-2-yl)piperazin-1-yl)-4,20-dioxo-6,9,12,15,18-pentaoxa-3-azaicosanoyl)-4-hydroxy-N-(4-(4-methylthiazol-5-yl)benzyl)pyrrolidine-2-carboxamide] | able to effectively degrade WDR5
11 | CN1CCN(c2ccc(-c3cccc(CN4CCN(CCNC(=O)CCCCCCCOc5cccc6c5C(=O)N(C5CCC(=O)NC5=O)C6=O)CC4)c3)cc2NC(=O)c2c[nH]c(=O)cc2C(F)(F)F)CC1 (stereo not drawn) [XF056-39, N-(3′-((4-(2-(8-((2-(2,6-dioxopiperidin-3-yl)-1,3-dioxoisoindolin-4-yl)oxy)octanamido)ethyl)piperazin-1-yl)methyl)-4-(4-methylpiperazin-1-yl)-[1,1′-biphenyl]-3-yl)-6-oxo-4-(trifluoromethyl)-1,6-dihydropyridine-3-carboxamide] | able to effectively degrade WDR5
12 | C[C@@H]1CN(c2cc(F)c(C3=CCN(c4ncc(CN5CCN(C(=O)CCOCCOCCNc6cccc7c6C(=O)N(C6CCC(=O)NC6=O)C7=O)CC5)cn4)CC3)cc2NC(=O)c2c[nH]c(=O)cc2C(F)(F)F)C[C@H](C)N1C (stereo partly drawn) [XF078-157, N-(5-(1-(5-((4-(3-(2-(2-((2-(2,6-dioxopiperidin-3-yl)-1,3-dioxoisoindolin-4-yl)amino)ethoxy)ethoxy)propanoyl)piperazin-1-yl)methyl)pyrimidin-2-yl)-1,2,3,6-tetrahydropyridin-4-yl)-4-fluoro-2-((3S,5R)-3,4,5-trimethylpiperazin-1-yl)phenyl)-6-oxo-4-(trifluoromethyl)-1,6-dihydropyridine-3-carboxamide] | able to effectively degrade WDR5
